# Reference: patent publication US20220008391A1, “NOVEL COMPOUNDS FOR CONTROLLING ARTHROPODS” (Bayer Animal Health GmbH, priority 2018, published 2022)
# Read-outs that look alike come from different tables or passages of the source.
# How the values were obtained:
# Ixodes ricinus = experiment: Antiparasitic activity after administration to dogs, I. ricinus ticks; assay type: in vivo; conditions: IR
# Method: (§1) Measurement of the Antiparasitic Activity after Administration of a Prodrug to Dogs
# (§2) Compounds were dissolved in the appropriate volume of glycerol formal (p.a.) just before application to the animals (dose volume was adjusted to 0.1 ml/kg bodyweight). Dogs were injected intravenously respective subcutaneously (see table 8 for details).
# (§3) Dogs were infested with ectoparasites according to table on study 1 day prior to counting for fleas, 2 days prior to counting for RS, IR, DV ticks and 3 days prior to counting for AA ticks. For this purpose, dogs were placed in an individually labeled box with grid windows. The ticks were released onto the back of the dogs and were allowed to disperse and move into the hair without disturbance. The dog remained in the box for approximately 120 minutes with the lid closed and the light switched off in the room. For flea infestations, flea containers were opened in the animal's cage and fleas were applied on the dog's back between the shoulders.
# (§4) Tick counts including removal of I. ricinus, R. sanguineus and D. variabilis were conducted 48(±4) hours after the infestation. Tick counts including removal of A. americanum were conducted 72(±4) hours after the infestation. Flea counts were conducted 24(±4) hours after the infestation.
# (§5) On each parasite assessment day percent efficacy was calculated as arithmetic mean parasite numbers as life attached and live free tick numbers and live flea numbers of the respective study group in comparison to parasite counts on a placebo non-treated control group.
# [1] = Evaluation of pharmacokinetics (in vivo), dog; conditions: concentration of parent compound A
# Method: Evaluation of Pharmacokinetics (In Vivo) To evaluate the pharmacokinetics of test substances in vivo, these test substances are dissolved in appropriate formulation vehicles (ethanol, dimethyl sulfoxide, PEG400, glycerol formal etc.), or mixtures thereof. The test substances are then administered to rats or dogs intravenously, orally or subcutaneously. The intravenous application is performed as bolus. Administered doses range usually between 0.1 to 5 mg/kg, however, doses for subcutaneous and oral administration can exceed this range up to doses of 30 mg/kg. Blood samples are retrieved via a catheter, exsanguination or venous puncture in vials containing appropriate anticoagulants, such as lithium heparinate or potassium EDTA. Plasma is generated from the blood via centrifugation. Blood samples are taken over an appropriate time interval, usually lasting up to 144h after administration. If necessary, samples from later time points can also be taken. […] The quantitative measurement of the test substances in the samples is performed using calibration curves in the respective matrices. […] The evaluation of the plasma concentration/time profiles are afterwards evaluated using a validated pharmacokinetics evaluation program. […]
# Ctenocephalides felis [2] = experiment: Antiparasitic activity after administration to rats, fleas; assay type: in vivo; conditions: Ctenocephalides felis, ip, 10 mg/kg, CF A
# Method: (§6) Measurement of the Antiparasitic Activity after Administration of a Prodrug to Rats Compounds were dissolved in the appropriate volume of glycerol formal (p.a.) just before application to the animals (dose volume was adjusted to 0.03 mL/kg bodyweight). 5 rats per group were either injected intraperitoneally or subcutaneously. Rats were infested with 30 Dermacentor variabilis nymphs on study days −2, 7, 14, 21, 28, 35 and 30 adult Ctenocephalides fleas on study days −1, 8, 15, 22, 29, 36. […] Percent efficacy was calculated as arithmetic mean parasite numbers as life attached tick numbers and live flea numbers of the respective study group in comparison to parasite counts on a placebo-treated control group. Infestation of groups with less than 75% efficacy on two consecutive counting occasions will terminated for the respective parasite.
# Ctenocephalides felis [3] = experiment: Antiparasitic activity after administration to dogs, fleas; assay type: in vivo; conditions: iv, 2 × 5 mg/kg, CF
# Method: as §1, §2, §3, §4, §5
# [4] = Evaluation of pharmacokinetics (in vivo), rat; conditions: concentration of parent compound A
# Method: Evaluation of Pharmacokinetics (In Vivo) To evaluate the pharmacokinetics of test substances in vivo, these test substances are dissolved in appropriate formulation vehicles (ethanol, dimethyl sulfoxide, PEG400, glycerol formal etc.), or mixtures thereof. The test substances are then administered to rats or dogs intravenously, orally or subcutaneously. The intravenous application is performed as bolus. Administered doses range usually between 0.1 to 5 mg/kg, however, doses for subcutaneous and oral administration can exceed this range up to doses of 30 mg/kg. Blood samples are retrieved via a catheter, exsanguination or venous puncture in vials containing appropriate anticoagulants, such as lithium heparinate or potassium EDTA. Plasma is generated from the blood via centrifugation. Blood samples are taken over an appropriate time interval, usually lasting up to 144h after administration. If necessary, samples from later time points can also be taken. If possible, time points are chosen so that the initial absorption phase, the maximum plasma concentration (Cmax), and exposure within a certain time interval (AUC(0-t)) are described. Furthermore, it is possible to also retrieve organ-, tissue- and urine samples. The quantitative measurement of the test substances in the samples is performed using calibration curves in the respective matrices. The protein content of the samples is precipitated using acetonitrile or methanol. Thereafter, the samples are separated using HPLC in combination with reversed phase chromatography columns. The HPLC system is coupled to a triple quadrupole mass spectrometer via an electrospray interface. The evaluation of the plasma concentration/time profiles are afterwards evaluated using a validated pharmacokinetics evaluation program. […] Relative bioavailability (Frel) was used to describe the exposure of parent after prodrug administration compared to the exposure of parent after direct administration of compound A which was normalised to 100%.
# Dermacentor variabilis [5] = experiment: Antiparasitic activity after administration to dogs, D. variabilis ticks; assay type: in vivo; conditions: DV
# Method: as §1, §2, §3, §4, §5
# Dermacentor variabilis [6] = experiment: Antiparasitic activity after administration to rats, tick nymphs; assay type: in vivo; conditions: Dermacentor variabilis, ip, 10 mg/kg, DV N
# Method: as §6
# Rhipicephalus sanguineus = experiment: Antiparasitic activity after administration to dogs, R. sanguineus ticks; assay type: in vivo; conditions: RS
# Method: as §1, §2, §3, §4, §5
# Amblyomma americanum = experiment: Antiparasitic activity after administration to dogs, A. americanum ticks; assay type: in vivo; conditions: AA
# Method: as §1, §2, §3, §4, §5
# [7] = iv, 2 × 5 mg/kg, study 1, month 1
# [8] = iv, 2 × 5 mg/kg, study 1, month 2
# [9] = iv, 2 × 5 mg/kg, study 1, month 3
# [10] = iv, 2 × 5 mg/kg, study 1, month 4
# [11] = iv, 2 × 5 mg/kg, study 1, month 5
# [12] = iv, 2 × 5 mg/kg, study 1, month 6
# [13] = iv bolus of the named substance
# [14] = sc administration of the named substance
# [15] = 48 h, study day 2, read-out: Efficacy SD2
# [16] = 216 h, study day 9, read-out: Efficacy SD9
# [17] = 384 h, study day 16, read-out: Efficacy SD16
smiles,measurement,setting,value
"N#CC1(NC(=O)c2cc(-c3cnn(-c4c(Cl)cc(C(F)(C(F)(F)F)C(F)(F)F)cc4OC(F)(F)F)c3)ccc2Cl)CC1 [Parent Compound A, 2-Chlor-5-{1-[2-chlor-4-(1,1,1,2,3,3,3-heptafluorpropan-2-yl)-6-(trifluormethoxy)phenyl]-1H-pyrazol-4-yl}-N-(1-cyanocyclopropyl)benzamide]",% Efficacy in study month 1,Ixodes ricinus; [7],100%
same,% Efficacy in study month 2,Ixodes ricinus; [8],100%
same,% Efficacy in study month 3,Ixodes ricinus; [9],100%
same,% Efficacy in study month 4,Ixodes ricinus; [10],100%
same,% Efficacy in study month 5,Ixodes ricinus; [11],98%
same,% Efficacy in study month 6,Ixodes ricinus; [12],98%
same,% Efficacy in study month 6,"Ixodes ricinus; sc, 5 mg/kg, study 3, month 6",3%
same,AUC(0-72 h)norm of parent compound A,[1]; [13],6.0 kg·h/L
same,AUC(0-384 h)norm of parent compound A,[1]; [14],1.0 kg·h/L
same,pest or weed control at 10 mg/kg,Ctenocephalides felis [2]; [15],84%
same,pest or weed control at 10 mg/kg,Ctenocephalides felis [2]; [16],68%
same,pest or weed control at 10 mg/kg,Ctenocephalides felis [2]; [17],71%
same,% Efficacy in study month 1,"Ctenocephalides felis [3]; study 1, month 1",100%
same,% Efficacy in study month 2,"Ctenocephalides felis [3]; study 1, month 2",100%
same,% Efficacy in study month 3,"Ctenocephalides felis [3]; study 1, month 3",100%
same,% Efficacy in study month 4,"Ctenocephalides felis [3]; study 1, month 4",100%
same,% Efficacy in study month 5,"Ctenocephalides felis [3]; study 1, month 5",100%
same,% Efficacy in study month 6,"Ctenocephalides felis [3]; study 1, month 6",100%
same,AUC(0-144 h)norm of parent compound A,[4]; [13],11 kg·h/L
same,AUC(0-24)norm of parent compound A,"[4]; po, 20 mg/kg",0.37 kg·h/L
same,AUC(0-144 h)norm of parent compound A,[4]; [14],1.7 kg·h/L
same,% Efficacy in study month 1,Dermacentor variabilis [5]; [7],98%
same,% Efficacy in study month 2,Dermacentor variabilis [5]; [8],99%
same,% Efficacy in study month 3,Dermacentor variabilis [5]; [9],100%
same,% Efficacy in study month 4,Dermacentor variabilis [5]; [10],95%
same,% Efficacy in study month 5,Dermacentor variabilis [5]; [11],98%
same,% Efficacy in study month 6,Dermacentor variabilis [5]; [12],84%
same,% Efficacy in study month 6,"Dermacentor variabilis [5]; sc, 5 mg/kg, study 3, month 6",19%
same,inhibition in vivo at 10 mg/kg,Dermacentor variabilis [6]; [15],96%
same,inhibition in vivo at 10 mg/kg,Dermacentor variabilis [6]; [16],87%
same,inhibition in vivo at 10 mg/kg,Dermacentor variabilis [6]; [17],83%
same,inhibition in vivo at 10 mg/kg,"Dermacentor variabilis [6]; 552 h, study day 23, read-out: Efficacy SD23",93%
same,inhibition in vivo at 10 mg/kg,"Dermacentor variabilis [6]; 720 h, study day 30, read-out: Efficacy SD30",53%
same,inhibition in vivo at 10 mg/kg,"Dermacentor variabilis [6]; 888 h, study day 37, read-out: Efficacy SD37",32%
same,% Efficacy in study month 1,Rhipicephalus sanguineus; [7],100%
same,% Efficacy in study month 2,Rhipicephalus sanguineus; [8],100%
same,% Efficacy in study month 3,Rhipicephalus sanguineus; [9],100%
same,% Efficacy in study month 4,Rhipicephalus sanguineus; [10],100%
same,% Efficacy in study month 5,Rhipicephalus sanguineus; [11],100%
same,% Efficacy in study month 6,Rhipicephalus sanguineus; [12],99%
same,% Efficacy in study month 6,"Rhipicephalus sanguineus; sc, 5 mg/kg, study 3, month 6",50%
same,% Efficacy in study month 1,"Amblyomma americanum; iv, 2 × 5 mg/kg, study 2, month 1",100%
same,% Efficacy in study month 2,"Amblyomma americanum; iv, 2 × 5 mg/kg, study 2, month 2",99%
same,% Efficacy in study month 3,"Amblyomma americanum; iv, 2 × 5 mg/kg, study 2, month 3",99%
same,% Efficacy in study month 4,"Amblyomma americanum; iv, 2 × 5 mg/kg, study 2, month 4",99%
same,% Efficacy in study month 5,"Amblyomma americanum; iv, 2 × 5 mg/kg, study 2, month 5",95%
same,% Efficacy in study month 6,"Amblyomma americanum; iv, 2 × 5 mg/kg, study 2, month 6",98%
same,% Efficacy in study month 6,"Amblyomma americanum; sc, 5 mg/kg, study 3, month 6",90%
